From patent publication US20230172961A1 (priority 2020, published 2023)

Experiments:
Thermo Sequenase = test: DNA polymerase extension reaction, MALDI-TOF MS, high fidelity polymerase; conditions: 10 µM nucleotide, DNA template and primer
Therminator II = Therminator II (Thermococcus sp., UniProt Q56366, A485L/D141A/E143A/Y409V); conditions: 10 µM nucleotide, DNA template and primer, MALDI-TOF MS
Therminator IX = conditions: 10 µM nucleotide, DNA template and primer, MALDI-TOF MS
[1] = molecular target: SARS-CoV RdRp (nsp12, nsp7 and nsp8) (Severe acute respiratory syndrome coronavirus, UniProt P0C6X7); assay type: biochemical
[2] = molecular target: T1, SARS-CoV-2 RdRp (nsp12, nsp7 and nsp8) (Severe acute respiratory syndrome coronavirus 2, UniProt P0DTD1); conditions: kinetic studies of Gordon et al 2020a, b; RDV-TP with MERS-CoV and SARS-CoV-2 RdRps; cited from earlier work
[3] = molecular target: T1, SARS-CoV-2 RdRp (nsp12, nsp7 and nsp8); assay type: biochemical
SARS-CoV-2 = conditions: hamsters; cited from earlier work
[4] = tested on: SARS-CoV-2 infection of human brain organoids; conditions: cited from earlier work
SARS-CoV-2 RdRp = SARS-CoV-2 RdRp (Severe acute respiratory syndrome coronavirus 2, UniProt P0DTD1); conditions: biochemical assays; cited from earlier work
[5] = molecular target: SARS-CoV-2 exonuclease complex (nsp14/nsp10) (Severe acute respiratory syndrome coronavirus 2, UniProt P0DTD1); test: Inhibition of SARS-CoV-2 exonuclease, MALDI-TOF MS; assay type: biochemical; conditions: 30 nM nsp14/nsp10, 37° C., 15 min
[6] = tested on: SARS-CoV-2 in Calu-3 lung cells; conditions: screen of 1200 drugs; cited from earlier work
[7] = tested on: SARS-CoV-2 in Vero and pulmonary epithelial cell culture; conditions: in the presence or absence of Ritonavir; cited from earlier work

Sequence of Therminator II (Q56366 whole entry D141A/E143A/Y409V/A485L): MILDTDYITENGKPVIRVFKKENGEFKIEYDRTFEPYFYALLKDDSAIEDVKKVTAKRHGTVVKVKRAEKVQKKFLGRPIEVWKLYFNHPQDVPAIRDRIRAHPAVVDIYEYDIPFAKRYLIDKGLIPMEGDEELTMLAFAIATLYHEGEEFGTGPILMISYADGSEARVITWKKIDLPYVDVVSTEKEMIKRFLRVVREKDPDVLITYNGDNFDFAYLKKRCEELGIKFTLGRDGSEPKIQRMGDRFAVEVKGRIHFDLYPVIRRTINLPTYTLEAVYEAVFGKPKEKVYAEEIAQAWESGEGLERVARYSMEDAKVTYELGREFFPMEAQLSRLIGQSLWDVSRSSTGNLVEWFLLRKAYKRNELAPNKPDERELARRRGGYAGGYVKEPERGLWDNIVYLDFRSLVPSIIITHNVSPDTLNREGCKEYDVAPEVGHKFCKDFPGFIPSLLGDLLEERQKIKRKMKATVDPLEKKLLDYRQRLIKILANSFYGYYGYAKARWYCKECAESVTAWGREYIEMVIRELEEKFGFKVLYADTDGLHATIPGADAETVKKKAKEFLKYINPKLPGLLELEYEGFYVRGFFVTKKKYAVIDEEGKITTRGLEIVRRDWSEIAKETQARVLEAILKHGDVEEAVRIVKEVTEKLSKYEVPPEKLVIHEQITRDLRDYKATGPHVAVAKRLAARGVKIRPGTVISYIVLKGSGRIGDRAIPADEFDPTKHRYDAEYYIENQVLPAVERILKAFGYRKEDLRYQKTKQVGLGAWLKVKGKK

Compound: 2′-fluoro-2′-methyl-UTP [2′-F,Me-UTP]
- incorporation and block of further nucleotide incorporation (Thermo Sequenase): no incorporation
- incorporation and block of further nucleotide incorporation (Therminator II): able to be incorporated and block further nucleotide incorporation
- incorporation and block of further nucleotide incorporation (Therminator IX): able to be incorporated and block further nucleotide incorporation
- termination of the polymerase reaction [1]: permanent terminators
- incorporation efficiency relative to the natural nucleotide [2]: lower incorporation efficiency than the natural nucleotide
- incorporation efficiency [3]: efficient substrates of the RdRp
- termination of the polymerase reaction [3]: single nucleotide (2′-F,Me-UMP) primer extension product

Compound: CNC(=C[N+](=O)[O-])NCCSCc1ccc(CN(C)C)o1.O=C([O-])CC(O)(CC(=O)[O-])C(=O)[O-].[Bi+3] [Ranitidine bismuth citrate]
- viral loads in the respiratory tract (SARS-CoV-2): decrease viral loads in the respiratory tract of hamsters

Compound: CC(C)OC(=O)[C@H](C)N[P@](=O)(OC[C@H]1O[C@@H](n2ccc(=O)[nH]c2=O)[C@](C)(F)[C@@H]1O)Oc1ccccc1 [Sofosbuvir]
- protection from SARS-CoV-2 infection [4]: protect human brain organoids from SARS-CoV-2 infection

Compound: Cc1ccc(C(=O)Nc2ccc(S(=O)(=O)O)c3cc(S(=O)(=O)O)cc(S(=O)(=O)O)c23)cc1NC(=O)c1cccc(NC(=O)Nc2cccc(C(=O)Nc3cc(C(=O)Nc4ccc(S(=O)(=O)O)c5cc(S(=O)(=O)O)cc(S(=O)(=O)O)c45)ccc3C)c2)c1 [Suramin]
- potency relative to Remdesivir (SARS-CoV-2 RdRp): 20 ×

Compound: COC[C@H]1C[C@@H](c2nc(-c3ccc4c(c3)COc3cc5c(ccc6nc([C@@H]7CC[C@H](C)N7C(=O)[C@@H](NC(=O)OC)C(C)C)[nH]c65)cc3-4)c[nH]2)N(C(=O)[C@H](NC(=O)OC)c2ccccc2)C1 [Velpatasvir]
- inhibition of exonuclease activity ([5]; 50 µM inhibitor): shows inhibition of the exonuclease activity
- inhibition of exonuclease activity ([5]; 150 µM inhibitor): increased inhibition of exonuclease activity
- synergism with Remdesivir in inhibiting viral production [6]: strongest effects

Compound: COC(=O)N[C@H](C(=O)N[C@@H](Cc1ccccc1)[C@@H](O)CN(Cc1ccc(-c2ccccn2)cc1)NC(=O)[C@@H](NC(=O)OC)C(C)(C)C)C(C)(C)C [atazanavir]
- inhibition of viral production [7]: inhibits viral production
